# In publication PMC11111408, “Concurrent inhibition of oncogenic and wild-type RAS-GTP for cancer therapy” (Nature, 2024):
# Test system: PRISM DNA-barcoded human tumour cell lines
# Test: PRISM pooled cell viability assay;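 for PRISM AUC: 8 threefold dilutions from 10 µM with 5 days of exposure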
# Assay type: cell-based
# Design: AUC (PRISM viability) / AUC (PRISM): unit not given beside the values
# Conditions: for AUC (PRISM viability): WT; for PRISM AUC: KRAS MUT
# Description: Cells were then lysed in TCL mRNA lysis buffer, and then PCR with reverse transcription was performed. Detection of the barcodes and univariate and multivariate analysis was then performed as previously described. Data analysis is described in the Supplementary Methods. Up-to-date code for our analysis is at the github link: https://github.com/cmap/dockerized_mts.
# For every gene with non-silent mutations in at least four cell-lines, we compared the AUC values between cells with and without those mutations using a t-test. This analysis was carried out for: (i) the full dataset; (ii) excluding cell lines with non-silent KRAS mutations; and (iii) excluding cell lines that have either KRAS or NRAS non-silent mutations.
smiles,measurement,setting,value
CCn1c(-c2cc(N3CCN(C4CC4)CC3)cnc2[C@H](C)OC)c2c3cc(ccc31)-c1csc(n1)C[C@H](NC(=O)[C@H]1[C@@H]3COC[C@@H]31)C(=O)N1CCC[C@H](N1)C(=O)OCC(C)(C)C2 [RMC-7977],AUC (PRISM viability),HUG1N_STOMACH,0.8055
same,AUC (PRISM viability),HUH1_LIVER,0.7529
same,AUC (PRISM viability),HUH6_LIVER,0.7376
same,AUC (PRISM viability),HUH7_LIVER,0.8557
same,AUC (PRISM viability),HUH28_BILIARY_TRACT,0.8029
same,PRISM AUC,HUPT3_PANCREAS,0.1666
same,PRISM AUC,HUPT4_PANCREAS,0.2071
same,PRISM AUC,IALM_LUNG,0.3346
same,AUC (PRISM viability),IGR1_SKIN,0.9019
same,AUC (PRISM viability),IGR37_SKIN,0.7982
same,AUC (PRISM viability),IGR39_SKIN,0.9854
same,AUC (PRISM viability),IGROV1_OVARY,0.7964
same,AUC (PRISM viability),IM95_STOMACH,0.4996
same,AUC (PRISM viability),IPC298_SKIN,0.1645
same,AUC (PRISM viability),ISHIKAWAHERAKLIO02ER_ENDOMETRIUM,0.7979
same,AUC (PRISM viability),ISTMES2_PLEURA,1
same,AUC (PRISM viability),J82_URINARY_TRACT,0.7456
same,AUC (PRISM viability),JEKO1_HAEMATOPOIETIC_AND_LYMPHOID_TISSUE,0.8585
same,AUC (PRISM viability),JHH1_LIVER,0.2992
same,AUC (PRISM viability),JHH4_LIVER,0.7822
same,AUC (PRISM viability),JHH5_LIVER,0.337
same,AUC (PRISM viability),JHH6_LIVER,0.6328
same,AUC (PRISM viability),JHH7_LIVER,0.6689
same,AUC (PRISM viability),JHOC5_OVARY,0.6127
same,AUC (PRISM viability),JHOM1_OVARY,0.7183
same,AUC (PRISM viability),JHOS2_OVARY,0.6659
same,AUC (PRISM viability),JHUEM2_ENDOMETRIUM,0.722
same,AUC (PRISM viability),JIMT1_BREAST,0.6067
same,AUC (PRISM viability),JJN3_HAEMATOPOIETIC_AND_LYMPHOID_TISSUE,0.5546
same,AUC (PRISM viability),JL1_PLEURA,0.8348
same,AUC (PRISM viability),JM1_HAEMATOPOIETIC_AND_LYMPHOID_TISSUE,0.8697
same,AUC (PRISM viability),JMSU1_URINARY_TRACT,0.7968
same,AUC (PRISM viability),JURKAT_HAEMATOPOIETIC_AND_LYMPHOID_TISSUE,1
same,AUC (PRISM viability),JURLMK1_HAEMATOPOIETIC_AND_LYMPHOID_TISSUE,0.263
same,AUC (PRISM viability),JVM3_HAEMATOPOIETIC_AND_LYMPHOID_TISSUE,0.6896
same,AUC (PRISM viability),K029AX_SKIN,0.9507
same,AUC (PRISM viability),K562_HAEMATOPOIETIC_AND_LYMPHOID_TISSUE,0.4372
same,AUC (PRISM viability),KALS1_CENTRAL_NERVOUS_SYSTEM,0.7464
same,AUC (PRISM viability),KARPAS299_HAEMATOPOIETIC_AND_LYMPHOID_TISSUE,0.6122
same,PRISM AUC,KARPAS620_HAEMATOPOIETIC_AND_LYMPHOID_TISSUE,0.3529
same,AUC (PRISM viability),KATOIII_STOMACH,0.4955
same,AUC (PRISM viability),KCL22_HAEMATOPOIETIC_AND_LYMPHOID_TISSUE,0.4527
same,AUC (PRISM viability),KE37_HAEMATOPOIETIC_AND_LYMPHOID_TISSUE,0.4418
same,AUC (PRISM viability),KE39_STOMACH,0.6732
same,AUC (PRISM viability),KELLY_AUTONOMIC_GANGLIA,0.7861
same,PRISM AUC,KHM1B_HAEMATOPOIETIC_AND_LYMPHOID_TISSUE,0.496
same,AUC (PRISM viability),KLE_ENDOMETRIUM,0.8932
same,AUC (PRISM viability),KMBC2_URINARY_TRACT,0.2167
same,AUC (PRISM viability),KMH2_HAEMATOPOIETIC_AND_LYMPHOID_TISSUE,0.7624
same,AUC (PRISM viability),KMRC1_KIDNEY,1
same,AUC (PRISM viability),KMRC3_KIDNEY,0.8631
same,AUC (PRISM viability),KMRC20_KIDNEY,0.5322
same,AUC (PRISM viability),KMS11_HAEMATOPOIETIC_AND_LYMPHOID_TISSUE,0.6264
same,AUC (PRISM viability),KMS18_HAEMATOPOIETIC_AND_LYMPHOID_TISSUE,0.2086
same,AUC (PRISM viability),KMS27_HAEMATOPOIETIC_AND_LYMPHOID_TISSUE,0.3359
same,AUC (PRISM viability),KMS34_HAEMATOPOIETIC_AND_LYMPHOID_TISSUE,0.4857
same,AUC (PRISM viability),KNS42_CENTRAL_NERVOUS_SYSTEM,0.8285
same,AUC (PRISM viability),KNS60_CENTRAL_NERVOUS_SYSTEM,0.8415
same,AUC (PRISM viability),KNS62_LUNG,0.4354
same,AUC (PRISM viability),KNS81_CENTRAL_NERVOUS_SYSTEM,0.5354
same,PRISM AUC,KOPN8_HAEMATOPOIETIC_AND_LYMPHOID_TISSUE,0.2801
same,PRISM AUC,KP2_PANCREAS,0.2975
same,PRISM AUC,KP3_PANCREAS,0.3778
same,PRISM AUC,KP4_PANCREAS,0.4423
same,AUC (PRISM viability),KS1_CENTRAL_NERVOUS_SYSTEM,0.4806
same,AUC (PRISM viability),KU1919_URINARY_TRACT,0.2273
same,AUC (PRISM viability),KURAMOCHI_OVARY,1
same,AUC (PRISM viability),KYM1_SOFT_TISSUE,0.3526
same,AUC (PRISM viability),KYO1_HAEMATOPOIETIC_AND_LYMPHOID_TISSUE,0.2345
same,AUC (PRISM viability),KYSE30_OESOPHAGUS,0.402
same,AUC (PRISM viability),KYSE70_OESOPHAGUS,0.7015
same,AUC (PRISM viability),KYSE140_OESOPHAGUS,0.5343
same,AUC (PRISM viability),KYSE150_OESOPHAGUS,0.4708
same,AUC (PRISM viability),KYSE180_OESOPHAGUS,0.5999
same,AUC (PRISM viability),KYSE270_OESOPHAGUS,0.564
same,PRISM AUC,KYSE410_OESOPHAGUS,0.2588
same,AUC (PRISM viability),KYSE450_OESOPHAGUS,0.34
same,AUC (PRISM viability),KYSE510_OESOPHAGUS,0.4594
same,AUC (PRISM viability),KYSE520_OESOPHAGUS,0.4602
same,PRISM AUC,L33_PANCREAS,0.3993
same,AUC (PRISM viability),L363_HAEMATOPOIETIC_AND_LYMPHOID_TISSUE,0.6953
same,AUC (PRISM viability),LAMA84_HAEMATOPOIETIC_AND_LYMPHOID_TISSUE,0.3291
same,AUC (PRISM viability),LCLC103H_LUNG,0.6805
same,AUC (PRISM viability),LI7_LIVER,0.4821
same,AUC (PRISM viability),LK2_LUNG,0.4878
same,AUC (PRISM viability),LMSU_STOMACH,0.6242
same,AUC (PRISM viability),LN18_CENTRAL_NERVOUS_SYSTEM,0.6382
same,AUC (PRISM viability),LN229_CENTRAL_NERVOUS_SYSTEM,0.6899
same,AUC (PRISM viability),LN382_CENTRAL_NERVOUS_SYSTEM,0.6351
same,AUC (PRISM viability),LNCAPCLONEFGC_PROSTATE,0.7528
same,AUC (PRISM viability),LNZ308_CENTRAL_NERVOUS_SYSTEM,0.4353
same,AUC (PRISM viability),LOUNH91_LUNG,0.4098
same,PRISM AUC,LOVO_LARGE_INTESTINE,0.4131
same,AUC (PRISM viability),LOXIMVI_SKIN,1
same,PRISM AUC,LS180_LARGE_INTESTINE,0.2098
same,AUC (PRISM viability),LS411N_LARGE_INTESTINE,1
same,PRISM AUC,LS513_LARGE_INTESTINE,0.2181
same,PRISM AUC,LU99_LUNG,0.2453
same,AUC (PRISM viability),LUDLU1_LUNG,0.5495
same,AUC (PRISM viability),LXF289_LUNG,0.5423
same,AUC (PRISM viability),M059K_CENTRAL_NERVOUS_SYSTEM,0.9015
same,AUC (PRISM viability),MALME3M_SKIN,0.9889
same,AUC (PRISM viability),MC116_HAEMATOPOIETIC_AND_LYMPHOID_TISSUE,0.9825
same,PRISM AUC,MCAS_OVARY,0.3593
same,AUC (PRISM viability),MCF7_BREAST,0.8582
same,AUC (PRISM viability),MDAMB175VII_BREAST,0.5383
same,PRISM AUC,MDAMB231_BREAST,0.478
same,AUC (PRISM viability),MDAMB361_BREAST,0.7391
same,AUC (PRISM viability),MDAMB435S_SKIN,0.9518
same,AUC (PRISM viability),MDAMB436_BREAST,0.9067
same,AUC (PRISM viability),MDAMB453_BREAST,0.3963
same,AUC (PRISM viability),MDAMB468_BREAST,0.5525
same,AUC (PRISM viability),MDST8_LARGE_INTESTINE,0.7229
same,AUC (PRISM viability),MELHO_SKIN,0.9921
same,AUC (PRISM viability),MELJUSO_SKIN,0.3578
same,AUC (PRISM viability),MESSA_SOFT_TISSUE,0.9559
same,AUC (PRISM viability),MEWO_SKIN,0.6173
same,AUC (PRISM viability),MFE280_ENDOMETRIUM,0.5252
same,AUC (PRISM viability),MFE296_ENDOMETRIUM,0.9033
same,AUC (PRISM viability),MFE319_ENDOMETRIUM,0.8155
same,AUC (PRISM viability),MG63_BONE,0.7861
same,AUC (PRISM viability),MHHES1_BONE,0.8525
same,AUC (PRISM viability),MHHNB11_AUTONOMIC_GANGLIA,0.4191
same,PRISM AUC,MIAPACA2_PANCREAS,0.1568
same,AUC (PRISM viability),MKN1_STOMACH,0.5983
same,AUC (PRISM viability),MKN7_STOMACH,0.4769
same,AUC (PRISM viability),MKN45_STOMACH,0.1583
same,AUC (PRISM viability),MKN74_STOMACH,0.7438
same,AUC (PRISM viability),MOLM13_HAEMATOPOIETIC_AND_LYMPHOID_TISSUE,0.4032
same,AUC (PRISM viability),MOLP2_HAEMATOPOIETIC_AND_LYMPHOID_TISSUE,0.65
same,AUC (PRISM viability),MOLT16_HAEMATOPOIETIC_AND_LYMPHOID_TISSUE,0.6383
same,AUC (PRISM viability),MONOMAC1_HAEMATOPOIETIC_AND_LYMPHOID_TISSUE,0.7673
same,AUC (PRISM viability),MONOMAC6_HAEMATOPOIETIC_AND_LYMPHOID_TISSUE,0.6964
